Measurements published in PubChem BioAssay (NCI).
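Each compound was tested at five concentrations against cells in 96-well plates for 48 hours. The concentration for full growth arrest is given as TGI.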

Experiments:
Assay in all cases: NCI tumour cell line growth inhibition, 48 h
[1] = system: A549 NSCLC
[2] = system: CCRF-CEM leukemia
[3] = system: EKVX NSCLC
[4] = system: HCC-2998 colon
[5] = system: HL-60(TB) leukemia
[6] = system: LOX IMVI melanoma
[7] = system: NCI-H23 lung
[8] = system: NCI/ADR-RES ovarian
[9] = system: OVCAR-4 ovarian
[10] = system: OVCAR-8 ovarian
[11] = system: PC-3 prostate

Row | Compound | TGI [1] [µM] | TGI [2] [µM] | TGI [3] [µM] | TGI [4] [µM] | TGI [5] [µM] | TGI [6] [µM] | TGI [7] [µM] | TGI [8] [µM] | TGI [9] [µM] | TGI [10] [µM] | TGI [11] [µM]
1 | Cc1cc(=O)oc2c(CNC(Cc3ccccc3)C(=O)O)c(O)ccc12 (centres undefined) | > 100 | > 100 | > 100 | > 100 | > 100 | > 100 | > 100 | > 100 | > 100 | > 100 | > 100
2 | N[C@H]1CCCC[C@@H]1N1C(=O)c2ccccc2C1(O)c1ccc(Cl)cc1 (some centres undefined) | 25.2 | 16.7 | 30.1 | 3.5 | 20 | 22.5 | 28.6 | 30.8 | 24.6 | 32.4 | 24.4
3 | CCC(C#N)NCc1cccc(CNC(C#N)CC)c1 (centres undefined) | > 100 | > 100 | > 100 | > 100 | > 100 | > 100 | > 100 | > 100 | > 100 | > 100 | > 100
4 | O=C(Nc1nc(C23CC4CC(CC(C4)C2)C3)cs1)c1cc2ccccc2oc1=O | > 100 | > 100 | > 100 | > 100 | > 100 | > 100 | > 100 | > 100 | > 100 | > 100 | > 100
5 | Cc1ccnc(NC(NC(=O)c2ccccc2)(C(F)(F)F)C(F)(F)F)c1 | > 100 | > 100 | > 100 | > 100 | > 100 | > 100 | > 100 | > 100 | > 100 | > 100 | > 100
6 | Cc1cc(S(=O)(=O)Nc2nc3ccccc3c(=O)n2N)c(S)cc1Cl | > 100 | > 100 | > 100 | > 100 | > 100 | > 100 | > 100 | 83.4 | > 100 | > 100 | > 100
7 | CCCCCCCCCCCCCCCCCCN(C)CC(COP(=O)([O-])OCC[N+](C)(C)C)OC (centres undefined) | 46.8 | 24.3 | 48.2 | 24.2 | 11.1 | 26 | 49.3 | > 100 | 29.6 | 44.8 | 32.9
8 | O=[N+]([O-])c1cc(-c2nc(-c3ccccc3)c(-c3ccccc3)[nH]2)c(O)c([N+](=O)[O-])c1 | > 100 | 72.7 | 58.9 | 30.8 | 70.1 | 49.1 | 36.1 | 56.7 | > 100 | > 100 | 44.3
9 | COc1ccc(C(=O)/C=C/c2cc(O)c(O)c(F)c2F)c(OC)c1 | > 100 | 32.9 | > 100 | 16.8 | 25.5 | > 100 | 41.7 | 67.7 | > 100 | > 100 | 40.6
10 | O=[N+]([O-])c1ccc(N/N=C/c2ccc(OCCCCCCCCCCCO)cc2)c([N+](=O)[O-])c1 | > 38.9 | > 44.5 | 52.1 | 76.6 | 31.2 | 59.7 | 45.8 | 9.51 | 13.7 | 9.86 | 14.7
11 | N#Cc1c(N)nc(Sc2ccccc2N)c(C#N)c1-c1ccc(Cl)cc1 | > 75.2 | > 100 | > 56.1 | 36 | > 100 | 15.3 | > 63 | 35.5 | > 100 | 41 | 20.7
12 | O=C1CSC(c2cccc([N+](=O)[O-])c2)N1c1ccc(-n2c(-c3ccccc3)nc3ccccc3c2=O)cc1 (centres undefined) | > 100 | > 100 | > 100 | > 100 | > 100 | > 100 | > 100 | > 100 | > 100 | > 100 | > 100
13 | O=C1Oc2cc(O)cc(/C=C/c3ccc(O)cc3)c2[C@@]12c1c(O)cc(O)cc1OC2c1cccc(O)c1 (some centres undefined) | > 100 | 56.5 | > 100 | 46.2 | 97.9 | 75.3 | 73.4 | > 100 | > 100 | > 100 | > 100
14 | CC(=O)Nc1c(C)cc2c(nc3n2CCC3O)c1[N+](=O)[O-] (centres undefined) | > 100 | > 100 | > 100 | > 100 | > 100 | > 100 | > 100 | > 100 | > 100 | > 100 | > 100
